Assays:
Format in all cases: biochemical
[1] = tested on: purified protease of Beauveria sp MTCC 5184; test: Stability of purified protease in organic solvents at 50° C.; settings: 25% (v/v) solvent
From the text: Following organic solvents were used: acetone, 1-butanol, benzene, chloroform, dimethylsulphoxide, ethanol, hexane, isopropanol and methanol. […] Samples were removed at different time intervals and residual activity was estimated.

[2] = tested on: purified protease of Beauveria sp MTCC 5184; test: Effect of β-mercapto ethanol and Triton X-100 on protease activity; settings: 30 min
From the text: This example illustrates the effect of β-mercapto ethanol (BME) and Triton X-100 on protease activity of Beauveria sp MTCC 5184.

[3] = tested on: protease of Beauveria sp MTCC 5184; test: Effect of inhibitors on protease activity
Experimental: (§1) The protease activity has been expressed in terms of tyrosine equivalents. The reaction mixture contained an aliquot of suitably diluted enzyme solution and 10 mg Hammerstein casein in 0.1 M sodium carbonate buffer pH 9.0 in a total volume of 2 ml. After incubation at 50° C. for 10 min, the reaction was terminated by the addition of 3 ml of 5% trichloroacetic acid (acidified with concentrated hydrochloric acid). The precipitate formed was filtered through Whatman No. 1 filter paper after standing for 30 min at room temperature. The absorbance of trichloroacetic acid soluble fraction was measured at 280 nm. Micrograms of tyrosine produced was calculated from a pre-calibrated graph of absorbance at 280 nm against tyrosine concentration and the units are expressed as […] of tyrosine released per minute under assay conditions.
This example illustrates the effect of inhibitors on protease activity of Beauveria sp MTCC 5184. Following inhibitors were studied: phenylmethylsulfonyl fluoride (PMSF), ethylene-diaminetetraacetic acid (EDTA), iodoacetic acid, N-tosyl-L-phenylalanine chloromethyl ketone (TPCK), N-tosyl-L-lysine chloromethyl ketone (TLCK), Dimethylsulphoxide (DMSO) and Benzamidine. […] Protease without inhibitor served as control.

[4] = tested on: protease of Beauveria sp MTCC 5184; test: Effect of metal ions on protease activity; settings: for Residual Activity (%): 28° C., 30 min; for inhibition: 1 mM
Experimental: as §1
This example illustrates the effect of metal ions on protease activity of Beauveria sp MTCC 5184.

[5] = tested on: protease of Beauveria sp MTCC 5184; test: Substrate protection by casein against inhibition by PMSF, NBS and WRK
From the text: The example illustrates the study of substrate protection by casein on inhibition of Beauveria sp MTCC 5184 protease by PMSF, WRK and NBS. […] Increase in casein concentration decreased the inhibition by both the inhibitors indicating substrate protection by casein (Table 11). This indicates the presence of serine, aspartic acid and tryptophan at the active site of protease.

[6] = tested on: protease of Beauveria sp MTCC 5184; test: Modification of tryptophan of protease with NBS; settings: 28° C., 30 min
Experimental: This example illustrates the modification of tryptophan with N-bromosuccinimide (NBS) and its effect on protease activity. […] Protease incubated without NBS served as the control.

[7] = tested on: protease of Beauveria sp MTCC 5184; test: Modification of serine residue of protease by PMSF; settings: 28° C., 30 min
Experimental: This example illustrates the modification of serine residue of protease by PMSF and its effect on protease activity. […] Protease incubated without PMSF served as the control.

[8] = tested on: protease of Beauveria sp MTCC 5184; test: Modification of aspartic acid residue of protease by WRK; settings: 28° C., 30 min
Experimental: This example illustrates the modification of aspartic acid residue of protease by Woodward's reagent (WRK) and its effect on protease activity. […] Protease incubated without WRK served as the control.

[9] = inhibitor 5 mM, pre-incubated 1 h, pH 8.0

1-butanol
Residual Activity (%) ([1]; 0 h, pH 7): 100.00% | Residual Activity (%) ([1]; 1 h, pH 7): 82.07% | Residual Activity (%) ([1]; 2 h, pH 7): 46.38%

CC(C)=O [Acetone, acetone]
Residual Activity (%) ([1]; 0 h, pH 7): 100.00% | Residual Activity (%) ([1]; 1 h, pH 7): 99.07% | Residual Activity (%) ([1]; 2 h, pH 7): 70.45% | Residual Activity (%) ([1]; 2 h, pH 7, listed as acetone): around 70%

OCCS [BME, β-mercapto ethanol]
activity retained ([2]; 10% BME, 28° C.): retained full activity

N=C(N)c1ccccc1 [Benzamidine]
Inhibition (%) [3, 9]: 3.62%

c1ccccc1 [Benzene, benzene]
Residual Activity (%) ([1]; 0 h, pH 7): 100.00% | Residual Activity (%) ([1]; 1 h, pH 7): 61.85% | Residual Activity (%) ([1]; 2 h, pH 7): 40.66%

[Ca+2].[Cl-].[Cl-] [Ca^+2]
activation of protease activity ([4]; 1 mM and 10 mM): no activation | Residual Activity (%) ([4]; 1 mM chloride salt): 92.99% | Residual Activity (%) ([4]; 10 mM chloride salt): 81.75%

[Cd+2] [Cd^+2]
inhibition [4]: 3% | Residual Activity (%) ([4]; 1 mM chloride salt): 96.99% | Residual Activity (%) ([4]; 10 mM chloride salt): 63.50%

ClC(Cl)Cl [Chloroform, chloroform]
Residual Activity (%) ([1]; 0 h, pH 7): 100.00% | Residual Activity (%) ([1]; 1 h, pH 7): 77.14% | Residual Activity (%) ([1]; 2 h, pH 7): 38.55%

[Cl-].[Cl-].[Co+2] [Co^+2]
inhibitory effect on the protease ([4]; 1 mM and 10 mM): no inhibitory effect | Residual Activity (%) ([4]; 1 mM chloride salt): 103.86% | Residual Activity (%) ([4]; 10 mM chloride salt): 112.36%

[Cl][Cu][Cl] [Cu^+2]
inhibitory effect on the protease ([4]; 1 mM and 10 mM): no inhibitory effect | Residual Activity (%) ([4]; 1 mM chloride salt): 109.42% | Residual Activity (%) ([4]; 10 mM chloride salt): 100.02%

C[S+](C)[O-] [DMSO, Dimethylsulphoxide]
Inhibition (%) ([3]; inhibitor 10%, pre-incubated 1 h, pH 8.0): 0.04% | Residual Activity (%) ([1]; 0 h, pH 7): 100.00% | Residual Activity (%) ([1]; 1 h, pH 7): 87.52%

O=C(O)CN(CCN(CC(=O)O)CC(=O)O)CC(=O)O [EDTA, ethylene-diaminetetraacetic acid]
Inhibition (%) ([3]; inhibitor 20 mM, pre-incubated 1 h, pH 8.0): 1.51%

CCO [Ethanol, ethanol]
Residual Activity (%) ([1]; 0 h, pH 7): 100.00% | Residual Activity (%) ([1]; 1 h, pH 7): 98.50% | Residual Activity (%) ([1]; 2 h, pH 7): 45.21%

[Cl][Fe]([Cl])[Cl] [Fe^+3]
Residual Activity (%) ([4]; 1 mM chloride salt): 81.67% | Residual Activity (%) ([4]; 10 mM chloride salt): 82.66%

CCCCCC [Hexane, hexane]
Residual Activity (%) ([1]; 0 h, pH 7): 100.00% | Residual Activity (%) ([1]; 1 h, pH 7): 76.18% | Residual Activity (%) ([1]; 2 h, pH 7): 29.43%

[Hg+2] [Hg^+2]
inhibition [4]: 10% | Residual Activity (%) ([4]; 1 mM chloride salt): 90.38% | Residual Activity (%) ([4]; 10 mM chloride salt): 63.16%

O=C(O)CI [Iodoacetate, iodoacetic acid]
Inhibition (%) ([3]; pH 8): 0.30%

CC(C)O [Isopropanol, isopropanol]
Residual Activity (%) ([1]; 0 h, pH 7): 100.00% | Residual Activity (%) ([1]; 1 h, pH 7): 71.26% | Residual Activity (%) ([1]; 2 h, pH 7): 46.16%

[Cl-].[K+] [K^+1]
Residual Activity (%) ([4]; 1 mM chloride salt): 91.71% | Residual Activity (%) ([4]; 10 mM chloride salt): 87.63%

[Cl][Mn][Cl] [Mn^+2]
Residual Activity (%) ([4]; 1 mM chloride salt): 101.51% | Residual Activity (%) ([4]; 10 mM chloride salt): 73.98%

O=C1CCC(=O)N1Br [NBS, N-bromosuccinimide]
Inhibition (%) ([5]; 0.01 mM NBS, casein 0 mg): 87.06% | Inhibition (%) ([5]; 0.01 mM NBS, casein 1 mg): 84.85% | Inhibition (%) ([5]; 0.01 mM NBS, casein 2 mg): 69.95% | Inhibition (%) ([5]; 0.01 mM NBS, casein 3 mg): 64.09% | Inhibition (%) ([5]; 0.01 mM NBS, casein 4 mg): 48.93% | Inhibition (%) ([5]; 0.01 mM NBS, casein 5 mg): 43.25% | Inhibition (%) ([5]; 0.01 mM NBS, casein 6 mg): 38.03% | Inhibition (%) ([5]; 0.01 mM NBS, casein 7 mg): 34.06% | Inhibition (%) ([5]; 0.01 mM NBS, casein 8 mg): 24.25% | Inhibition (%) ([5]; 0.01 mM NBS, casein 9 mg): 16.27% | Inhibition (%) ([5]; 0.01 mM NBS, casein 10 mg): 16.28% | concentration at which complete inhibition was observed ([6]; 10 μM purified protease): 0.06 mM | Residual Activity (%) ([6]; NBS 0.01 mM): 20.39% | Residual Activity (%) ([6]; NBS 0.02 mM): 15.70% | Residual Activity (%) ([6]; NBS 0.03 mM): 12.55% | Residual Activity (%) ([6]; NBS 0.04 mM): 8.93% | Residual Activity (%) ([6]; NBS 0.05 mM): 7.08% | Residual Activity (%) ([6]; NBS 0.06 mM): 0% | Residual Activity (%) ([6]; NBS 0.07 mM): 0% | Residual Activity (%) ([6]; NBS 0.08 mM): 0% | Residual Activity (%) ([6]; NBS 0.09 mM): 0% | Residual Activity (%) ([6]; NBS 0.10 mM): 0%

[Cl-].[Na+] [Na^+1]
Residual Activity (%) ([4]; 1 mM chloride salt): 100.94% | Residual Activity (%) ([4]; 10 mM chloride salt): 99.01%

O=S(=O)(F)Cc1ccccc1 [PMSF, phenylmethylsulfonyl fluoride]
Inhibition (%) ([5]; 0.01 mM PMSF, casein 0 mg): 95.02% | Inhibition (%) ([5]; 0.01 mM PMSF, casein 1 mg): 74.91% | Inhibition (%) ([5]; 0.01 mM PMSF, casein 2 mg): 70.78% | Inhibition (%) ([5]; 0.01 mM PMSF, casein 3 mg): 64.06% | Inhibition (%) ([5]; 0.01 mM PMSF, casein 4 mg): 60.71% | Inhibition (%) ([5]; 0.01 mM PMSF, casein 5 mg): 52.65% | Inhibition (%) ([5]; 0.01 mM PMSF, casein 6 mg): 45.22% | Inhibition (%) ([5]; 0.01 mM PMSF, casein 7 mg): 41.73% | Inhibition (%) ([5]; 0.01 mM PMSF, casein 8 mg): 34.80% | Inhibition (%) ([5]; 0.01 mM PMSF, casein 9 mg): 31.56% | Inhibition (%) ([5]; 0.01 mM PMSF, casein 10 mg): 26.26% | concentration at which complete inhibition was observed ([7]; 10 μM purified protease): 0.025 mM | Residual Activity (%) ([7]; PMSF 0.005 mM): 45.65% | Residual Activity (%) ([7]; PMSF 0.010 mM): 8.78% | Residual Activity (%) ([7]; PMSF 0.015 mM): 3.76% | Residual Activity (%) ([7]; PMSF 0.020 mM): 1.74% | Residual Activity (%) ([7]; PMSF 0.025 mM): 0% | Residual Activity (%) ([7]; PMSF 0.030 mM): 0% | Residual Activity (%) ([7]; PMSF 0.035 mM): 0% | Residual Activity (%) ([7]; PMSF 0.040 mM): 0% | Residual Activity (%) ([7]; PMSF 0.045 mM): 0% | Residual Activity (%) ([7]; PMSF 0.050 mM): 0%

CC[n+]1ccc(-c2cccc(S(=O)(=O)[O-])c2)o1 [WRK, Woodward's reagent]
concentration at which complete inhibition was observed ([8]; 10 μM purified protease): 9 mM | Residual Activity (%) ([8]; WRK 1 mM): 86.08% | Residual Activity (%) ([8]; WRK 2 mM): 75.76% | Residual Activity (%) ([8]; WRK 3 mM): 61.47% | Residual Activity (%) ([8]; WRK 4 mM): 49.05% | Residual Activity (%) ([8]; WRK 5 mM): 34.66% | Residual Activity (%) ([8]; WRK 6 mM): 19.53% | Residual Activity (%) ([8]; WRK 7 mM): 11.69% | Residual Activity (%) ([8]; WRK 8 mM): 6.39% | Residual Activity (%) ([8]; WRK 9 mM): 0% | Residual Activity (%) ([8]; WRK 10 mM): 0% | Inhibition (%) ([5]; 5 mM WRK, casein 0 mg): 75.26% | Inhibition (%) ([5]; 5 mM WRK, casein 1 mg): 66.03% | Inhibition (%) ([5]; 5 mM WRK, casein 2 mg): 59.32% | Inhibition (%) ([5]; 5 mM WRK, casein 3 mg): 53.22% | Inhibition (%) ([5]; 5 mM WRK, casein 4 mg): 45.06% | Inhibition (%) ([5]; 5 mM WRK, casein 5 mg): 40.25% | Inhibition (%) ([5]; 5 mM WRK, casein 6 mg): 31.10% | Inhibition (%) ([5]; 5 mM WRK, casein 7 mg): 26.27% | Inhibition (%) ([5]; 5 mM WRK, casein 8 mg): 19.32% | Inhibition (%) ([5]; 5 mM WRK, casein 9 mg): 12.87% | Inhibition (%) ([5]; 5 mM WRK, casein 10 mg): 8.72%

N-tosyl-L-lysine chloromethyl ketone [TLCK]
Inhibition (%) [3, 9]: 12.12%

N-tosyl-L-phenylalanine chloromethyl ketone [TPCK]
Inhibition (%) [3, 9]: 7.33%

Triton X-100
activity retained ([2]; 2% Triton X-100, 28° C.): 80%
